The text below walks through data of patent EP4685143A1 (Vivozon,Inc., priority 2023, dated 2024).

The target of one test is T1, human HDAC6 enzyme (Homo sapiens, UniProt Q9UBN7).
T1 sequence (Q9UBN7 1-1215): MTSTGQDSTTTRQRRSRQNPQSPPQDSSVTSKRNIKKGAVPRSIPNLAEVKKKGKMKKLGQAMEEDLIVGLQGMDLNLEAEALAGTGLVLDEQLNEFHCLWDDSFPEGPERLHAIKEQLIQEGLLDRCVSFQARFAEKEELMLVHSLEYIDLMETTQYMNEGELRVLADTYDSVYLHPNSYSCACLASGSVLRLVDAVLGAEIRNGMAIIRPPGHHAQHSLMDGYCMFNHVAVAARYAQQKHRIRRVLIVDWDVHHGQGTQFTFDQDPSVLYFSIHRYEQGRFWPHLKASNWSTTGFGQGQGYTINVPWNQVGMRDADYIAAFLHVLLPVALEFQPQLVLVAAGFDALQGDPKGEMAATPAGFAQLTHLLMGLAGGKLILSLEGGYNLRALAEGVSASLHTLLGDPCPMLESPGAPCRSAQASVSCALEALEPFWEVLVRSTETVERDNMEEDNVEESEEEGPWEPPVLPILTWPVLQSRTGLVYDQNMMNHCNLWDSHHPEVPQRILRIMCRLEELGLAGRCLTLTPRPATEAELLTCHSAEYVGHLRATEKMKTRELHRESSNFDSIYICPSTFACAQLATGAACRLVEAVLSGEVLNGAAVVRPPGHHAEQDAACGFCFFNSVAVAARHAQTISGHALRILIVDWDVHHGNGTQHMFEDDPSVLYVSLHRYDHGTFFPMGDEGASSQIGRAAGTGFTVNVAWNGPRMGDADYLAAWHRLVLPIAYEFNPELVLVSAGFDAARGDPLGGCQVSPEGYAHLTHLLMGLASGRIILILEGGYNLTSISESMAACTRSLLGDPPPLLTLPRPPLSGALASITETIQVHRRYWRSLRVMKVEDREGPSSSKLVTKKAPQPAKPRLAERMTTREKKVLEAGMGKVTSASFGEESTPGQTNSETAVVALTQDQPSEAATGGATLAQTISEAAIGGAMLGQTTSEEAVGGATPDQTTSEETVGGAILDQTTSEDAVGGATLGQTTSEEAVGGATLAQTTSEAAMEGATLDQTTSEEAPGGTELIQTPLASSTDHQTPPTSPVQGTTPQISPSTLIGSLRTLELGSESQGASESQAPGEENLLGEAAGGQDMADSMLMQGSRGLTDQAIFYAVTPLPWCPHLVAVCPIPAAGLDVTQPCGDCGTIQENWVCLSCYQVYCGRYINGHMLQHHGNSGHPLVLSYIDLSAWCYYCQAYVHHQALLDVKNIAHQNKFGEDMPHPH
Briefly: Fluorescence-based enzyme activity assay. Type of test: biochemical. To be noted: substrate with fluorescent peptide of p53 residues 379-382, 30°C for 1 hour. How it is done:
Experimental Example 1: Fluorescence-based enzyme activity assay
In order to measure the inhibitory effect of the compounds on the activity of histone deacetylase 6 (HDAC6), an enzyme activity assay was performed to evaluate the enzyme activity by reacting the human HDAC6 enzyme with a substrate to which a fluorescent peptide of p53 residues 379-382 was attached. The test compounds were dissolved in 100% DMSO at a concentration of 10 mM to prepare a stock solution. A starting concentration of 30 µM was prepared from the stock solution, followed by 1/3 serial dilutions to prepare the test buffer solution. Trichostatin A (TSA)-which is the reference compound used to confirm the validity of the experiment-was serially diluted by 1/3 with the test buffer solution, starting from the highest concentration of 1 µM. To react the test compounds and TSA prepared in the test buffer with the HDAC6 enzyme, they were dispensed into a 96-well black plate and spin-down of the plate was performed. Then, the reaction was carried out at room temperature for 10 minutes. After 10 minutes, the substrate was dispensed, and the plate was sealed. The reaction was carried out at 30°C for 1 hour under light-blocking conditions. Fluorescence values were measured using a plate reader (wavelength: excitation/emission = 360/460 nm). The fluorescence measurements were normalized to the HDAC6 enzyme-treated group as 100% and the untreated group as 0%, respectively. […]

The next test addresses T2, Human mGluR5 (Homo sapiens, UniProt P41594).
T2 construct: expressed in transfected cells; host or cells: HEK293
Briefly: Fluorescence-based Ca2+ mobilization assay. Conditions: HEK293 cell line permanently overexpressing mGluR5, Ca2+ level change induced by L-glutamate at EC80 concentration, FLIPR Tetra. The procedure: Experimental Example 2: Fluorescence-based Ca^2+ mobilization assay
In order to measure the activity of the antagonist on the mGluR5, an experiment was carried out to check the change in the intracellular Ca^2+ level using the HEK293 cell line permanently overexpressing the mGluR5. The cells in the cell culture medium were aliquoted into a 384-well plate coated with poly-D-lysine and cultured in a 37°C incubator supplied with 5% CO2. The next day, the medium was removed and a dye loading buffer-in which a reagent capable of measuring Ca^2+ was dissolved-was added, and then incubated at 37°C for 60 minutes. The test compounds were dissolved in 100% DMSO at a final concentration of 10 mM to make a stock solution. The starting concentration of 10 µM was prepared from the stock solution, followed by serial dilutions to prepare working solutions (test compound working solutions). The test compound working solutions were added to the cells that were incubated in the dye loading buffer, which were maintained for 30 minutes at room temperature in a light-shielding state before measurement. The Ca^2+ level change induced by L-glutamate at EC80 concentration was measured for 2 minutes using FLIPR Tetra (MDS Analytical Technologies). The fluorescent Ca^2+ signal values in the presence of the test compounds were normalized to the fluorescent signal elicited by EC80 concentration of L-glutamate as 100% and that elicited by vehicle as 0% to estimate % inhibition of the test compounds. […]
A general note: Calcium assays in cells follow changes in intracellular calcium, usually with a dye or a luminescent sensor.

SMILES strings stand for the structures. pIC50: −log10 of the molar value. A value given as a limit tells only on which side of the number the result lay.

T2 sequence (P41594 21-1212): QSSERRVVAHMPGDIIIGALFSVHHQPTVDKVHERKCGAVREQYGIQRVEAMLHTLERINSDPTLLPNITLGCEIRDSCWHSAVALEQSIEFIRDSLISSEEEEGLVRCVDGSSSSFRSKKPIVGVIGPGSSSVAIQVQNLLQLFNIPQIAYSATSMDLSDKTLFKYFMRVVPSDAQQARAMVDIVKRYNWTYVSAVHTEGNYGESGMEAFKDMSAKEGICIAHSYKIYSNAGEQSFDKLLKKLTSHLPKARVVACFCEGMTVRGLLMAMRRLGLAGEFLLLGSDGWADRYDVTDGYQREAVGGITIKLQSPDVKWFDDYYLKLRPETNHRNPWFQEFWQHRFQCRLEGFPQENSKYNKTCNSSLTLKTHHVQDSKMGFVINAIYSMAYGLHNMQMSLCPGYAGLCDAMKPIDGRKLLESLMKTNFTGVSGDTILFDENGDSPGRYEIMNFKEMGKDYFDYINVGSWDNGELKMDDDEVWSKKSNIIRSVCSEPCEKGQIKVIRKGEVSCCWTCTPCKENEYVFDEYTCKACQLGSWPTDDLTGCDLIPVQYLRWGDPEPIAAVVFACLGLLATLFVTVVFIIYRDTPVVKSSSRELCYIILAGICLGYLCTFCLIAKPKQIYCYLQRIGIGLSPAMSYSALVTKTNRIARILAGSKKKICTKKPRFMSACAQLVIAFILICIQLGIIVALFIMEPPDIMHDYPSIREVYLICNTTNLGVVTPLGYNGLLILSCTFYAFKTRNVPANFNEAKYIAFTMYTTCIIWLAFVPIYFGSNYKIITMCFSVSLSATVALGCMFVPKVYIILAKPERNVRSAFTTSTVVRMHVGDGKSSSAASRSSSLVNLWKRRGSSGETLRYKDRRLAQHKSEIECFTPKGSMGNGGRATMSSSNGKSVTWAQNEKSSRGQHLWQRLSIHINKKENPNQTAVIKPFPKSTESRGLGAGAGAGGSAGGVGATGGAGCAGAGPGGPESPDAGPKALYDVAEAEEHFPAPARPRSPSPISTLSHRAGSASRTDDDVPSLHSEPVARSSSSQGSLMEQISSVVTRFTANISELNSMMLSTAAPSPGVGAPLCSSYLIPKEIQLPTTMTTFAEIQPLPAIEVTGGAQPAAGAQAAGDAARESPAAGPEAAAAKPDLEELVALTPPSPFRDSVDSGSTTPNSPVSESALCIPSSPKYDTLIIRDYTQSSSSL

One may read the pIC50 as −log10 of the IC50, conventionally taken in molar units. A high value points to a small IC50. Take `O=c1cc(-c2nnc(C(F)F)o2)ccn1CC#Cc1cccc(OC(F)(F)F)c1` [Example 20, 4-(5-(difluoromethyl)-1,3,4-oxadiazol-2-yl)-1-(3-(3-(trifluoromethoxy)phenyl)prop-2-yn-1-yl)pyridin-2(1H)-one]: the negative logarithm of the IC50 (pIC50) against human HDAC6 enzyme was 6.30 to 7.00; against Human mGluR5, 5.70 to 6.00. `O=c1cc(-c2nnc(C(F)F)o2)ccn1CC#Cc1cccc(C(F)F)c1` [Example 26, 4-(5-(difluoromethyl)-1,3,4-oxadiazol-2-yl)-1-(3-(3-(difluoromethyl)phenyl)prop-2-yn-1-yl)pyridin-2(1H)-one]: the negative logarithm of the IC50 (pIC50) against Human mGluR5 was 6.00 to 6.30. Turning to `O=c1cc(-c2noc(C(F)F)n2)ccn1CC#Cc1cccc(Cl)c1` [Example 30, 1-(3-(3-chlorophenyl)prop-2-yn-1-yl)-4-(5-(difluoromethyl)-1,2,4-oxadiazol-3-yl)pyridin-2(1H)-one], the pIC50 against human HDAC6 enzyme and against Human mGluR5 was 6.00 to 6.30 in each case. For `O=c1cc(-c2noc(C(F)(F)F)n2)ccn1CC#Cc1cccc(Cl)c1` [Example 7, 1-(3-(3-chlorophenyl)prop-2-yn-1-yl)-4-(5-(trifluoromethyl)-1,2,4-oxadiazol-3-yl)pyridine-2(1H)-one], the pIC50 at human HDAC6 enzyme was 6.00 to 6.30; at Human mGluR5, 5.70 to 6.00.

As to `N#Cc1cccc(C#CCn2ccc(-c3nnc(C(F)F)o3)cc2=O)c1` [Example 31, 3-(3-(4-(5-(difluoromethyl)-1,3,4-oxadiazol-2-yl)-2-oxopyridin-1(2H)-yl)prop-1-yn-1-yl)benzonitrile], the negative logarithm of the IC50 (pIC50) was more than 7.00 on human HDAC6 enzyme and 6.00 to 6.30 against Human mGluR5.

Turning to `O=c1cc(-c2nnc(C(F)(F)F)o2)ccn1CC#Cc1cccc(Cl)c1` [Example 28, 1-(3-(3-chlorophenyl)prop-2-yn-1-yl)-4-(5-(trifluoromethyl)-1,3,4-oxadiazol-2-yl)pyridin-2(1H)-one], the pIC50 at human HDAC6 enzyme was 6.00 to 6.30; on Human mGluR5 it was 5.70 to 6.00. The corresponding values for `O=c1cc(-c2nnc(C(F)F)o2)ccn1CC#Cc1cc(Cl)ccc1F` [Example 36, 1-(3-(5-chloro-2-fluorophenyl)prop-2-yn-1-yl)-4-(5-(difluoromethyl)-1,3,4-oxadiazol-2-yl)pyridin-2(1H)-one] are 6.30 to 7.00 and 5.70 to 6.00. Regarding `CCC(C#Cc1cccc(Cl)c1)Oc1cc(-c2nnc(C(F)F)o2)ccn1` (stereo not drawn) [Example 44], the pIC50 at Human mGluR5 is 5.70 to 6.00. As to `Cc1cccc(C#CCn2ccc(-c3nnc(C(F)F)o3)cc2=O)n1` [Example 24, 4-(5-(difluoromethyl)-1,3,4-oxadiazol-2-yl)-1-(3-(6-methylpyridin-2-yl)prop-2-yn-1-yl)pyridin-2(1H)-one], the pIC50 is more than 7.00 against human HDAC6 enzyme and 6.00 to 6.30 at Human mGluR5.

For `O=c1cc(-c2nnc(C(F)F)o2)ccn1CC#Cc1cccc(Br)c1` [Example 25, 1-(3-(3-bromophenyl)prop-2-yn-1-yl)-4-(5-(difluoromethyl)-1,3,4-oxadiazol-2-yl)pyridin-2(1H)-one], the pIC50 against human HDAC6 enzyme was 6.30 to 7.00; against Human mGluR5, 6.00 to 6.30. The corresponding values for `O=c1cc(-c2nnc(C(F)F)o2)ccn1CC#Cc1ccnc(Cl)c1` [Example 23, 1-(3-(2-chloropyridin-4-yl)prop-2-yn-1-yl)-4-(5-(difluoromethyl)-1,3,4-oxadiazol-2-yl)pyridin-2(1H)-one] are more than 7.00 and 5.70 to 6.00. On the same counts, the results for `O=c1cc(-c2nnc(C(F)F)o2)ccn1CC#Cc1cccc(OC(F)F)c1` [Example 27, 1-(3-(3-(difluoromethoxy)phenyl)prop-2-yn-1-yl)-4-(5-(difluoromethyl)-1,3,4-oxadiazol-2-yl)pyridin-2(1H)-one] are more than 7.00 and 5.70 to 6.00. The corresponding values for `O=c1cc(-c2nnc(C(F)F)o2)ccn1CC#Cc1cccc(C(F)(F)F)c1` [Example 19, 4-(5-(difluoromethyl)-1,3,4-oxadiazol-2-yl)-1-(3-(3-(trifluoromethyl)phenyl)prop-2-yn-1-yl)pyridin-2(1H)-one] are 6.30 to 7.00 and 5.70 to 6.00. As to `Cc1ccc(C#CCn2ccc(-c3nnc(C(F)F)o3)cc2=O)cc1` [Example 17, 4-(5-(difluoromethyl)-1,3,4-oxadiazol-2-yl)-1-(3-(p-tolyl)prop-2-yn-1-yl)pyridin-2(1H)-one], the pIC50 on human HDAC6 enzyme was 6.30 to 7.00; at Human mGluR5, 5.70 to 6.00. On the same counts, the results for `O=c1cc(-c2nnc(C(F)F)o2)ccn1CC#Cc1cccc(Cl)c1` [Example 15, 1-(3-(3-chlorophenyl)prop-2-yn-1-yl)-4-(5-(difluoromethyl)-1,3,4-oxadiazol-2-yl)pyridin-2(1H)-one] are more than 7.00 and 6.00 to 6.30. On the same counts, the results for `Cc1cccc(C#CCn2ccc(-c3nnc(C(F)F)o3)cc2=O)c1` [Example 18, 4-(5-(difluoromethyl)-1,3,4-oxadiazol-2-yl)-1-(3-(m-tolyl)prop-2-yn-1-yl)pyridin-2(1H)-one] are more than 7.00 and 5.70 to 6.00. Take `O=c1cc(-c2nnc(C(F)F)o2)c(Br)cn1CC#Cc1cccc(Cl)c1` [Example 46, 5-bromo-1-(3-(3-chlorophenyl)prop-2-yn-1-yl)-4-(5-(difluoromethyl)-1,3,4-oxadiazol-2-yl)pyridin-2(1H)-one]: the negative-log IC50 (pIC50) against Human mGluR5 was 6.00 to 6.30. Regarding `Cc1cc(-c2nnc(C(F)F)o2)cc(=O)n1CC#Cc1cccc(Cl)c1` [Example 45, 1-(3-(3-chlorophenyl)prop-2-yn-1-yl)-4-(5-(difluoromethyl)-1,3,4-oxadiazol-2-yl)-6-methylpyridin-2(1H)-one], the pIC50 on human HDAC6 enzyme is 6.30 to 7.00; on Human mGluR5, 6.00 to 6.30.
